# Results published in US20250144067A1, “PERSONALIZED STARVATION THERAPY FOR CANCER” (Faeth Therapeutics, Inc., priority 2021, published 2025).
# Counter-ions that a name gives are not always drawn.
# Key:
# [1] = system: NCI-H292 lung cancer cells; test: FDA drug screening, complete media vs cholesterol-free media with simvastatin (TABLE 2); type: cell-based, human; conditions: for Cholesterol-free media + simvastatin (0.04 μM) / Complete Media: NCI-H292 cells
# [2] = system: NCI-H292 lung cancer cells; test: FDA drug screening, complete media vs cholesterol-free media without statin (TABLE 1); type: cell-based, human
# [3] = drug in cholesterol-free media with simvastatin 0.04 μM
# [4] = complete media vs cholesterol-free media + simvastatin (0.04 μM), >0 enhanced anti-cancer activity, about 0 neutral, <0 antagonist
# [5] = NCI-H292 cells, cholesterol-free media without statin
# [6] = complete vs cholesterol-free media, greater than 0 enhanced anti-cancer activity, about 0 neutral, below 0 antagonists
# [7] = FDA library drug in cholesterol-free media with simvastatin 0.04 μM
# [8] = FDA library drug in complete media
# [9] = NCI-H292 cells, cholesterol-free media without statin, FDA drug library screen
# [10] = NCI-H292 cells, complete media, FDA drug library screen
# [11] = complete vs cholesterol-free media, >0 enhanced anti-cancer activity, about 0 neutral, <0 antagonist
# [12] = FDA drug library screen, cholesterol-free media with simvastatin 0.04 μM
# [13] = FDA drug library screen, complete media
# [14] = cholesterol-free media with simvastatin 0.04 μM, FDA drug library screen (TABLE 2)
# [15] = complete media, FDA drug library screen (TABLE 2)
# [16] = complete media minus cholesterol-free media + simvastatin (0.04 μM), >0 enhanced anti-cancer activity, about 0 neutral, <0 antagonist
# [17] = cholesterol-free media with simvastatin 0.04 μM, cell growth value in FDA drug screen
# [18] = complete media, cell growth value in FDA drug screen
# [19] = complete media minus cholesterol-free media + simvastatin, >0 enhanced anti-cancer activity, about 0 neutral, <0 antagonist
# [20] = complete media vs cholesterol-free media + simvastatin (0.04 μM), […]
# [21] = NCI-H292 cells, FDA drug library screen, cholesterol-free media without statin
# [22] = NCI-H292 cells, FDA drug library screen, complete media
# [23] = Complete minus Cholesterol-free, greater than 0 enhanced anti-cancer activity, about 0 neutral, below 0 antagonists
# [24] = NCI-H292 cells in cholesterol-free media without statin
# [25] = NCI-H292 cells in complete media
# [26] = Complete minus Cholesterol-free, >0 enhanced anti-cancer activity, about 0 neutral, <0 antagonist
# [27] = complete vs cholesterol-free media, […]
structure (smiles),measurement,setting,value
CCN(CC)CC#CCOC(=O)C(O)(c1ccccc1)C1CCCCC1 (stereo not drawn) [Oxybutynin (chloride)],Cholesterol-free media + simvastatin (0.04 μM),[1]; [3],1.236
same,Complete Media,[1]; drug in complete media,1.034
same,Difference,[1]; [4],−0.20
same,Cholesterol-free,[2]; [5],1.171
same,Complete,"[2]; NCI-H292 cells, complete media",0.8317
same,Difference,[2]; [6],−0.34
CC1=C(C/C=C(\C)CCC[C@H](C)CCC[C@H](C)CCCC(C)C)C(=O)c2ccccc2C1=O [Vitamin K1],Cholesterol-free media + simvastatin (0.04 μM),[1]; [7],1.062
same,Complete Media,[1]; [8],0.6359
same,Difference,[1]; [4],−0.43
same,Cholesterol-free,[2]; [9],0.9273
same,Complete,[2]; [10],1.412
same,Difference,[2]; [11],0.48
CC(=O)OCC(=O)[C@H]1CC[C@H]2[C@@H]3CCC4=CC(=O)CC[C@]4(C)[C@H]3CC[C@]12C [Deoxycorticosterone acetate],Cholesterol-free media + simvastatin (0.04 μM),[1]; [12],0.9825
same,Complete Media,[1]; [13],0.8887
same,Difference,[1]; [4],−0.09
same,Cholesterol-free,[2]; [9],0.7412
same,Complete,[2]; [10],1.214
same,Difference,[2]; [11],0.47
COc1ccc(C(=O)N2CCN(c3ccc4c(c3)CCC(=O)N4)CC2)cc1OC [Vesnarinone],Cholesterol-free media + simvastatin (0.04 μM),[1]; [14],0.9506
same,Complete Media,[1]; [15],0.9031
same,Difference,[1]; [16],−0.05
same,Cholesterol-free,[2]; [9],0.9756
same,Complete,[2]; [10],1.197
same,Difference,[2]; [11],0.22
C#Cc1cccc(Nc2ncnc3cc(OCCOC)c(OCCOC)cc23)c1 [Erlotinib (Hydrochloride)],Cholesterol-free media + simvastatin (0.04 μM),[1]; [17],0.6388
same,Complete Media,[1]; [18],0.67
same,Difference,[1]; [19],0.03
same,Cholesterol-free,[2]; [9],0.2078
same,Complete,[2]; [10],0.4921
same,Difference,[2]; [11],0.28
COc1ccc([C@@H]2CC(=O)c3c(O)cc(O[C@@H]4O[C@H](CO[C@@H]5O[C@@H](C)[C@H](O)[C@@H](O)[C@H]5O)[C@@H](O)[C@H](O)[C@H]4O)cc3O2)cc1O [Hesperidin],Cholesterol-free media + simvastatin (0.04 μM),[1]; [12],1.822
same,Complete Media,[1]; [13],1.671
same,Difference,[1]; [20],−0.15
same,Difference,"[2]; Complete minus Cholesterol-free, […]",−0.08
same,Cholesterol-free,[2]; [21],1.106
same,Complete,[2]; [22],1.03
COc1cc(C(=O)NC2CCCNC2)cc(OC)c1OC (stereo not drawn) [Troxipide],Cholesterol-free media + simvastatin (0.04 μM),[1]; [7],1.578
same,Complete Media,[1]; [8],1.185
same,Difference,[1]; [4],−0.39
same,Difference,[2]; [23],−0.70
same,Cholesterol-free,[2]; [24],1.812
same,Complete,[2]; [25],1.111
COc1ccnc(C[S+]([O-])c2nc3cc(-n4cccc4)ccc3[nH]2)c1C (stereo not drawn) [Ilaprazole (sodium)],Cholesterol-free media + simvastatin (0.04 μM),[1]; [17],1.333
same,Complete Media,[1]; [18],1.428
same,Difference,[1]; [19],0.10
same,Cholesterol-free,[2]; [5],1.162
same,Complete,"[2]; NCI-H292 cells, complete media",0.7783
same,Difference,[2]; [6],−0.38
COc1ccc(O)cc1 [Mequinol],Cholesterol-free media + simvastatin (0.04 μM),[1]; [7],1.22
same,Complete Media,[1]; [8],0.8263
same,Difference,[1]; [4],−0.39
same,Difference,[2]; [26],−0.26
same,Cholesterol-free,[2]; [5],0.8829
same,Complete,"[2]; NCI-H292 cells, complete media",0.6277
CC(C)OC(=O)CNc1cccc(CN(Cc2ccc(-n3cccn3)cc2)S(=O)(=O)c2cccnc2)n1 [Omidenepag isopropyl],Cholesterol-free media + simvastatin (0.04 μM),[1]; [17],1.236
same,Complete Media,[1]; [18],1.286
same,Difference,[1]; [19],0.05
same,Difference,[2]; [23],−0.75
same,Cholesterol-free,[2]; [24],1.563
same,Complete,[2]; [25],0.8153
C=CCN1CCc2nc(N)sc2CC1 [Talipexole dihydrochloride],Cholesterol-free media + simvastatin (0.04 μM),[1]; [3],1.333
same,Complete Media,[1]; drug in complete media,1.079
same,Difference,[1]; [4],−0.25
same,Difference,"[2]; Complete minus Cholesterol-free, greater than 0 enhanced anti-cancer activity, about 0 neutral, below 0 antagonist",−0.09
same,Cholesterol-free,[2]; [21],1.016
same,Complete,[2]; [22],0.9282
CCCCCCCCCC(=O)N[C@@H](Cc1c[nH]c2ccccc12)C(=O)N[C@H](CC(N)=O)C(=O)N[C@@H](CC(=O)O)C(=O)N[C@@H]1C(=O)NCC(=O)N[C@@H](CCCN)C(=O)N[C@@H](CC(=O)O)C(=O)N[C@H](C)C(=O)N[C@@H](CC(=O)O)C(=O)NCC(=O)N[C@H](CO)C(=O)N[C@@H]([C@H](C)CC(=O)O)C(=O)N[C@@H](CC(=O)c2ccccc2N)C(=O)O[C@@H]1C [Daptomycin],Cholesterol-free media + simvastatin (0.04 μM),[1]; [12],1.147
same,Complete Media,[1]; [13],1.33
same,Difference,"[1]; complete media minus cholesterol-free media + simvastatin, […]",0.18
same,Cholesterol-free,[2]; [5],1.025
same,Complete,"[2]; NCI-H292 cells, complete media",0.6476
same,Difference,[2]; [27],−0.38
CC(C)(C)C(O)/C=C/c1ccc2c(c1)OCO2 (stereo not drawn) [Stiripentol],Cholesterol-free media + simvastatin (0.04 μM),[1]; [14],0.9313
same,Complete Media,[1]; [15],0.8754
same,Difference,[1]; [16],−0.06
same,Difference,[2]; [26],0.02
same,Cholesterol-free,[2]; [9],0.9226
same,Complete,[2]; [10],0.9415
N[C@@H]1CN(c2c(F)cc3c(=O)c(C(=O)O)cn([C@@H]4C[C@@H]4F)c3c2Cl)CC12CC2.O [Sitafloxacin (hydrate)],Cholesterol-free media + simvastatin (0.04 μM),[1]; [7],1.043
same,Complete Media,[1]; [8],0.7235
same,Difference,[1]; [20],−0.32
same,Cholesterol-free,[2]; [5],1.147
same,Complete,"[2]; NCI-H292 cells, complete media",0.7079
same,Difference,[2]; [27],−0.44
